Data taken from patent publication US9233961B2, “Compounds and compositions for the treatment of parasitic diseases” (Novartis AG, priority 2013, dated 2016).
Read-outs that look alike come from different tables or passages of the source.

What was measured:
[1] = system: L. donovani HU3 strain in mouse peritoneal macrophages; test: Assay for proliferation of Leishmania parasites in mouse peritoneal macrophages; format: cell-based, Leishmania donovani; details: Leishmania donovani, Peritoneal macrophage, read-out: L. donavani Macrophage EC50
In short: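 BALB/c peritoneal macrophages infected 24 h with L. donovani HU3 amastigotes taken from spleens of mice infected 9–11 weeks, then treated with compound for 5 days at 37° C, 5% CO2. Parasite nuclei counted by SYBR Green imaging after fixation; EC50 from percentage inhibition.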

[2] = system: Trypanosoma brucei Lister 427 strain bloodstream form; test: Assay for proliferation of kinetoplastid parasite Trypanosoma brucei; format: cell-based; details: read-out: T. brucei EC50
Text: Assay for Proliferation of Kinetoplastid Parasite Trypanosoma brucei.
The proliferation is quantified by the addition of Cell Titer Glo (Promega®) a luminescent cell viability assay that measures the number of viable cells in culture based on the quantification of cellular ATP amount, which is an indicator of metabolically active cells.
The following assay illustrates the invention without in any way limiting the scope of the invention. This parasite proliferation assay measures the increase in parasite growth using an assay that measures ATP activity, Cell Titer Glo®.
Trypanosoma brucei Lister 427 strain is grown in HMI-9 Trypanosome media for T. brucei bloodstream form. 30 μl of HMI-9 media is dispensed into 384 well assay plates. 200 nl of compounds of the invention (in DMSO), including anti-trypanosome controls (Pentamidine and suramin), are then transferred into the assay plates, as well as DMSO alone to serve as a negative control for inhibition. Then 25 μl of a suspension of T. brucei culture in HMI-9 media is dispensed into the assay plates. The final concentration of parasites in culture corresponds to 1.7% of 0.5 uM ATP activity with Cell Titer Glo® in HMI-9 media. The plates are placed in a 37° C. incubator for 48 hours in an atmospheric environment containing 5% CO2. 40 μl of Cell Titer Glo® is dispensed into the plates. The plates are then read for luminescence. The percentage inhibition of 50%, EC50, is calculated for each compound.

[3] = system: Leishmania donovani axenic amastigote parasites; test: Leishmania donovani axenic amastigote proliferation assay; format: cell-based; details: read-out: L. donovani amastigotes EC50
In short: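 L. donovani axenic amastigotes (9600/well) in RPMI 1640 with 20% heat-inactivated FBS, folic acid, adenosine, glucose and 25 mM MES, pH 5.5, were incubated with compounds for 2 days at 37 °C, 5% CO2. Viability read by CellTiter-Glo luminescence; EC50 calculated.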

[4] = Lister 427 bloodstream form, 48 hours

Row | SMILES | EC50 [1] [µM] | EC50 ([2]; 48 h) [µM] | EC50 [3] [µM] | EC50 [2, 4] [µM] | EC50 ([3]; axenic amastigotes in vitro) [µM]
1 | Cc1cnc2nc(-c3cc(NCc4ccco4)ccc3Cl)[nH]c2c1 [Example 266, 4-chloro-N-(furan-2-ylmethyl)-3-{6-methyl-1H-imidazo[4,5-b]pyridin-2-yl}aniline] | > 40.5 | > 25 | > 25 | – | –
2 | Cc1cnc2nc(-c3cc(NC(=O)c4ccno4)ccc3Cl)[nH]c2c1 [Compound 155] | > 39.7 | – | – | 4.3 | 7.2
3 | Cc1cnc2nc(-c3cc(NC(=O)CCO)ccc3Cl)[nH]c2c1 [Compound 143] | > 50 | – | – | > 14.4 | > 25
4 | Cc1cnc2nc(-c3cc(NC(=O)Cn4cccnc4=O)ccc3Cl)[nH]c2c1 [Compound 168] | > 50 | – | – | > 16.7 | > 25
5 | Cc1cnc2nc(-c3cc(NC(=O)CNC(=O)OC(C)(C)C)ccc3Cl)[nH]c2c1 [Compound 112] | > 50 | – | – | > 24.1 | > 25
6 | Cc1ccc(Nc2ccc(Cl)c(-c3nc4ncc(C)cc4[nH]3)c2)nc1 [Compound 262] | 13.5 | – | – | > 22.4 | > 25
7 | Cc1cnc2nc(-c3cc(NS(=O)(=O)Cc4ccccc4)ccc3Cl)[nH]c2c1 [Example 250, N-(4-chloro-3-{6-methyl-1H-imidazo[4,5-b]pyridin-2-yl}phenyl)-1-phenylmethanesulfonamide] | > 50 | – | – | > 25 | > 25
8 | Cc1cnc2nc(-c3cc(NC(=O)C4Cc5ccccc5O4)ccc3Cl)[nH]c2c1 (stereo not drawn) [Compound 123] | > 50 | – | – | 4.1 | 20.3
9 | Cc1cnc2nc(-c3cc(NC(=O)c4cccc5c4OCC5)ccc3Cl)[nH]c2c1 [Compound 180] | 13.2 | – | – | 8.3 | > 25
10 | CC(C)N1CCN(c2ccc(-c3cnc4nc(-c5cc(NC(=O)c6ccco6)ccc5Cl)[nH]c4c3)cc2)CC1 [Compound 62] | 9.4 | – | – | 0.52 | 19.2
11 | Cc1cnc2nc(-c3cc(NC(=O)Cc4ccc(N(C)C)cc4)ccc3Cl)[nH]c2c1 [Compound 82] | > 38.5 | – | – | > 14.1 | > 25
12 | CN(C)CCOc1ccc(-c2cnc3nc(-c4cc(NC(=O)c5ccco5)ccc4Cl)[nH]c3c2)cc1 [Compound 69] | 2.74 | – | – | 0.1 | 18.1
13 | Cc1cnc2nc(-c3cc(NC(=O)c4ccc(-c5cnccn5)cn4)ccc3Cl)[nH]c2c1 [Compound 166] | > 27.8 | – | – | > 25 | > 25
14 | Cc1cnc2nc(-c3cc(NC(=O)c4ccc(C(F)(F)F)nc4C)ccc3Cl)[nH]c2c1 [Compound 162] | > 50 | – | – | 1.23 | > 25
15 | CCOC(=O)Nc1ccc(Cl)c(-c2nc3ncc(-c4ccc5c(c4)CC(=O)N5)cc3[nH]2)c1 [Compound 378] | 3.3 | – | – | 0.02 | 0.69
16 | Cc1cnc2nc(-c3cc(NS(=O)(=O)CC(C)C)ccc3Cl)[nH]c2c1 [Compound 255] | > 50 | – | – | > 25 | > 25
17 | Cc1cnc2nc(-c3cc(NC(=O)c4ccncc4)ccc3Cl)[nH]c2c1 [Compound 212] | 22.5 | – | – | 2.65 | 6.6
18 | Cc1cnc2nc(-c3cc(NC(=O)Cc4c(F)cccc4F)ccc3Cl)[nH]c2c1 [Compound 87] | 24.4 | – | – | > 6.9 | > 25
19 | Cc1cnc2nc(-c3cc(NC(=O)NC4CCC4)ccc3Cl)[nH]c2c1 [Example 247, 1-(4-Chloro-3-{6-methyl-1H-imidazo[4,5-b]pyridin-2-yl}phenyl)-3-cyclobutylurea] | 26.9 | – | – | 6.4 | > 25

Row | SMILES | EC50 [1] [µM] | EC50 ([2]; 48 h) [µM] | EC50 [3] [µM] | EC50 [2, 4] [µM] | EC50 ([3]; axenic amastigotes in vitro) [µM]
20 | Cc1cnc2nc(-c3cc(Nc4ccc(N(C)C)cn4)ccc3Cl)[nH]c2c1 [Compound 259] | > 50 | – | – | > 25 | > 25
21 | Cc1cnc2nc(-c3cc(NC(=O)CN)ccc3Cl)[nH]c2c1 [Compound 116] | > 50 | – | – | > 25 | > 25
22 | CNc1ccc(-c2cnc3nc(-c4cc(NC(=O)C5CCCC5)ccc4Cl)[nH]c3c2)cc1 [Compound 346] | 0.47 | – | – | 0.56 | 2.53
23 | Cc1cnc2nc(-c3cc(NC(=O)C4(C)CN(C(=O)OC(C)(C)C)C4)ccc3Cl)[nH]c2c1 [Compound 133] | > 50 | – | – | > 25 | > 25
24 | COc1ccccc1C(=O)Nc1ccc(Cl)c(-c2nc3ncc(C)cc3[nH]2)c1 [Compound 108] | 16.3 | – | – | 8.3 | > 25
25 | Cc1cnc2nc(-c3cc(NC(=O)C(C)(C)c4ccc(Cl)cc4)ccc3Cl)[nH]c2c1 [Compound 81] | 16.9 | – | – | 10.8 | > 25
26 | Cc1cnc2nc(-c3cc(NC(=O)c4ncc[nH]4)ccc3Cl)[nH]c2c1 [Compound 95] | > 50 | – | – | > 14.4 | > 25
27 | Cc1cnc2nc(-c3cc(NC(=O)C4(C)CNC4)ccc3Cl)[nH]c2c1 [Compound 200] | > 50 | – | – | > 9.6 | > 25
28 | Cc1cnc2nc(-c3cc(NC(=O)c4ccc(S(C)(=O)=O)cc4Cl)ccc3Cl)[nH]c2c1 [Compound 110] | 23.8 | – | – | > 13.6 | > 25
29 | Cc1cnc2nc(-c3cc(NC(=O)COc4ccccc4)ccc3Cl)[nH]c2c1 [Compound 120] | > 50 | – | – | 10.5 | > 25
30 | Cc1cnc2nc(-c3cc(NC(=O)c4cc[nH]n4)ccc3Cl)[nH]c2c1 [Compound 157] | > 34.6 | – | – | 12.8 | > 25
31 | Cc1cnc2nc(-c3cc(NC(=O)c4ccnn4C)ccc3Cl)[nH]c2c1 [Compound 213] | > 48 | – | – | > 25 | > 25
32 | COc1ccc(-c2cnc3nc(-c4cc(NC(=O)c5ccco5)ccc4Cl)[nH]c3c2)cc1S(=O)(=O)N1CCCC1 [Compound 49] | 1.05 | – | – | 0.0067 | 0.44
33 | Cc1cnc2nc(-c3cc(NC(=O)c4cncn4C)ccc3Cl)[nH]c2c1 [Compound 207] | > 50 | – | – | > 25 | > 25
34 | Cc1cnc2nc(-c3cc(NC(=O)c4cnccn4)ccc3Cl)[nH]c2c1 [Compound 206] | 13.4 | – | – | 0.174 | 1.56
35 | Cc1cnc2nc(-c3cc(NC(=O)C(C)(C)NC(=O)OC(C)(C)C)ccc3Cl)[nH]c2c1 [Compound 111] | > 50 | – | – | > 13.6 | > 25
36 | CNc1ccc(-c2cnc3nc(-c4cc(NC(=O)c5cc(C)cs5)ccc4Cl)[nH]c3c2)cc1 [Example 345, N-(4-chloro-3-{6-[4-(methylamino)phenyl]-1H-imidazo[4,5-b]pyridin-2-yl}phenyl)-4-methylthiophene-2-carboxamide] | 1.35 | – | – | 0.277 | 1.97
37 | Cc1cnc2nc(-c3cc(NC(=O)c4cocn4)ccc3Cl)[nH]c2c1 [Compound 113] | 26.4 | – | – | 1.68 | 15.3
